Results reported in patent EP0840727B1, “3-HYDROXY-2(1H)-[…] AGENTS” (priority 1995, dated 1997).
Where two headings read alike, the source gives them in different places. Marks after values point to notes of the source that are not given here.

Assays:
[1] = ligand 30 µmol kg^-1 ip at 1 h after iv ^238Pu(IV) citrate, kill at 24 h, reported previously, cited from earlier work; for percent of injected ^238Pu at 24 h, excreta: feces and GI contents / percent of injected ^238Pu at 24 h, excreta: urine 0-24 h / percent of injected ^238Pu at 24 h, tissues: kidneys: pooled samples
[2] = In vivo acute toxicity test of injected ligands in mice
Experimental: The test of acute toxicity of novel and comparative ligands was carried out as follows. Groups of five mice were each given a single i.p. injection of […] of ligand and a day for 10 days or given two i.p. injections of […] in 8 hours. The ligand was dissolved in 0.5 to 1.0 ml of saline at pH 7 to 8. After a period of observation, the mice were killed; selected tissues were removed and fixed for histopathological examination; and unusual findings at autopsy were recorded. […]

[3] = Promoting excretion of 238Pu(IV) in mice by injected ligands; type: in vivo; conditions: for percent of injected ^238Pu ± SD at 24 h, tissues: liver / percent of injected ^238Pu ± SD at 24 h, tissues: skeleton / percent of injected ^238Pu ± SD at 24 h, tissues: soft tissue / percent of injected ^238Pu ± SD at 24 h, whole body / percent of injected ^238Pu at 24 h, excreta: feces and GI contents / percent of injected ^238Pu at 24 h, excreta: urine 0-24 h / percent of injected ^238Pu at 24 h, tissues: kidneys: ligand 30 µmol kg^-1 ip at 1 h after iv ^238Pu(IV) citrate, kill at 24 h; for percent of injected ^238Pu at 24 h, excreta: feces and GI contents / percent of injected ^238Pu at 24 h, excreta: urine 0-24 h / percent of injected ^238Pu at 24 h, tissues: kidneys: pooled samples
Source text: Animal studies were completed using methods detailed in Radiation Protection Dosimetry, in press, P. W. Durbin et al., "In Vivo Chelation of Am(III), Pu(IV), Np(V) and U(VI) in Mice by TREN-(Me-3,2-HOPO)"; Radiation Protection Dosimetry, 17, No. 1, 1989, p. 351, P. W. Durbin et al., "Removal of ^238Pu(IV) from Mice by Polycatechoylate, -Hydroxamate or -Hydroxypyridinonate Ligands"; Radiation Research, 99, 1984, p. 85, P. W. Durbin et al., "Specific Sequestering Agents for the Actinides ..."; Radiation Research, 99, 1984, p. 106, P. W. Durbin et al., "Removal of Pu and Am from Beagles and Mice ..."; Radiation Research, 81, 1980, p. 170, R. D. Lloyd et al., and P. W. Durbin et al., "Specific Sequestering Agents for the Actinides ...". The foregoing articles are hereby incorporated by reference.
Radionuclides used in the animal studies came from a variety of sources. However, they can be purchased commercially. The ^238Pu(IV) citrate and ^241Am(III) citrate solutions were prepared for animal injection by 8- to 10-fold dilution with 0.14M NaCl (pH 4) of concentrated stock solutions (0.08M sodium citrate buffer) that had been held in frozen storage at Lawrence Berkeley Laboratory (hereinafter LBL) for several years. [The ^238Pu(IV) was originally obtained from D. R. Atherton at the University of Utah Radiobiology Laboratory, Salt Lake City. The ^241Am(III) solution had been obtained many years earlier from the LBL Actinide Chemistry group.]
The novel chelating agents of the present invention and comparative compounds were tested for their effectiveness in promoting excretion ^238Pu(IV) in nice by injected ligands as follows. Mice, in groups of five, each received an intravenous injection of 1850 Bq ^238Pu(IV) in 0.2 mL of citrate buffer. One hour later, 30 µmol/kg of ligand was injected intraperitoneally in 0.5 mL of saline. The mice were killed 24 hours after the Pu injection, frozen, and dissected after partial thawing. The ^238Pu in skeleton, soft tissues, and separated excreta was determined by counting the ^234U L x-rays. Results of removal of ^238Pu(IV) from mice by injected ligands are summarized in Table 3, which also includes data for CaNa3-DTPA and other reference ligands and the Pu-injected controls. […] While the case of multidente 1,2-HOPO and catechoylamide chelating agents, octadentates are always better chelating agents than the corresponding hexadentates and tetradentates.

[4] = protocol I, 100 µmol kg^-1 x 10 daily i.p., study length 11 d
[5] = protocol I, 100 µmol kg^-1 x 10 daily i.p., study length 21 d
[6] = protocol II, 500 µmol kg^-1 x 2 in 8 h, study length 11 d
[7] = protocol IA, 100 µmol kg^-1 x 2 daily, study length 3 d
[8] = protocol IA, 100 µmol kg^-1 x 2 daily, study length 11 d
[9] = protocol II, 500 µmol kg^-1 x 2 in 8 h, study length 8 d

| Compound | percent of injected ^238Pu at 24 h, excreta: feces and GI contents [1] | percent of injected ^238Pu at 24 h, excreta: urine 0-24 h [1] | percent of injected ^238Pu at 24 h, tissues: kidneys [1] | percent of injected ^238Pu ± SD at 24 h, tissues: liver [1] | percent of injected ^238Pu ± SD at 24 h, tissues: skeleton [1] | percent of injected ^238Pu ± SD at 24 h, tissues: soft tissue [1] | percent of injected ^238Pu ± SD at 24 h, whole body [1] | percent of injected ^238Pu ± SD at 24 h, tissues: liver [3] | percent of injected ^238Pu ± SD at 24 h, tissues: skeleton [3] | percent of injected ^238Pu ± SD at 24 h, tissues: soft tissue [3] | percent of injected ^238Pu ± SD at 24 h, whole body [3] | percent of injected ^238Pu at 24 h, excreta: feces and GI contents [3] | percent of injected ^238Pu at 24 h, excreta: urine 0-24 h [3] | percent of injected ^238Pu at 24 h, tissues: kidneys [3] | also measured |
| --- | --- | --- | --- | --- | --- | --- | --- | --- | --- | --- | --- | --- | --- | --- | --- |
| O=C(NCCCN(CCCCN(CCCNC(=O)c1cccc(=O)n1O)C(=O)c1cccc(=O)n1O)C(=O)c1cccc(=O)n1O)c1cccc(=O)n1O [3,4,3-LI(1,2-HOPO)] | 57% of injected ^238Pu | 23% of injected ^238Pu | 0.2% of injected ^238Pu | 8.9 ± 1.7^d percent of injected ^238Pu | 7.5 ± 0.7^d percent of injected ^238Pu | 1.6 ± 0.6^d percent of injected ^238Pu | 18 ± 1.7^d percent of injected ^238Pu |  |  |  |  |  |  |  |  |
| O=C(NCCCCN(CCCNC(=O)c1cccc(=O)n1O)C(=O)c1cccc(=O)n1O)c1cccc(=O)n1O [3,4-LI(1,2-HOPO)] | 58% of injected ^238Pu | 7.9% of injected ^238Pu | 0.6% of injected ^238Pu | 18 ± 4.8% of injected ^238Pu | 9.9 ± 3.6% of injected ^238Pu | 5.8 ± 1.3% of injected ^238Pu | 34 ± 9.2% of injected ^238Pu |  |  |  |  |  |  |  |  |
| Cn1ccc(C(=O)NCCOCCNC(=O)c2ccn(C)c(=O)c2O)c(O)c1=O [5-LI-O-Me-3,2-HOPO, 1,5-bis[(3-hydroxy-1-methyl-2-oxo-1,2-dihydropyridin-4-yl)carboxamino]-3-oxypentane] |  |  |  |  |  |  |  | 2.1 ± 0.3^d percent of injected ^238Pu | 11 ± 1.6% of injected ^238Pu | 1.6 ± 0.2^d percent of injected ^238Pu | 15 ± 2.1^d percent of injected ^238Pu | 61.7% of injected ^238Pu | 23.5% of injected ^238Pu | 0.2% of injected ^238Pu | toxicity (in words) ([2]; even at the relatively high dosage of 2x500 µmol/kg in 8 hours): low toxicity; no. of survivors [2, 4]: 5; percent control mean + SD: body weight [2, 4]: 103 ± 5 percent control; percent control mean + SD: kidney weight [2, 4]: 100 ± 19 percent control; percent control mean + SD: plasma urea N [2, 4]: 83 ± 5 percent control; no. of survivors [2, 5]: 5; percent control mean + SD: body weight [2, 5]: 101 ± 5 percent control; percent control mean + SD: kidney weight [2, 5]: 111 ± 5 percent control; percent control mean + SD: plasma urea N [2, 5]: 86 ± 18 percent control; no. of survivors [2, 6]: 10; percent control mean + SD: body weight [2, 6]: 100 ± 2 percent control; percent control mean + SD: kidney weight [2, 6]: 108 ± 10 percent control; percent control mean + SD: plasma urea N [2, 6]: 77 ± 10 percent control; Pu removal (in words) ([3]; injected ligands, 30 µmol/kg intraperitoneally one hour after ^238Pu(IV)): as effective or more effective than the hexadentate and octadentate chelating agents |
| Cn1ccc(C(=O)NCCCCCCNC(=O)c2ccn(C)c(=O)c2O)c(O)c1=O [6-LI-Me-3,2-HOPO, 1,6-bis[(3-hydroxy-1-methyl-2-oxo-1,2-dihydropyridin-4-yl)carboxamindo]hexane] |  |  |  |  |  |  |  | 6.5 ± 3.7^d percent of injected ^238Pu | 12 ± 1.8% of injected ^238Pu | 3.7 ± 1.8% of injected ^238Pu | 23 ± 4.9^d percent of injected ^238Pu | 62.9% of injected ^238Pu | 14.4% of injected ^238Pu | 0.5% of injected ^238Pu | no. of survivors [2, 7]: 5; percent control mean + SD: body weight [2, 7]: 83 ± 3 percent control; percent control mean + SD: kidney weight [2, 7]: 132 ± 11 percent control; percent control mean + SD: plasma urea N [2, 7]: 343 ± 140 percent control; no. of survivors [2, 8]: 3; percent control mean + SD: body weight [2, 8]: 101 ± 5 percent control; percent control mean + SD: kidney weight [2, 8]: 112 ± 13 percent control; percent control mean + SD: plasma urea N [2, 8]: 92 ± 6 percent control |
| CC(=O)N(O)CCCCCNC(=O)CCC(=O)N(O)CCCCCNC(=O)CCC(=O)N(O)CCCCCN [DFO, desferrioxamine B] | 15.1% of injected ^238Pu | 38% of injected ^238Pu | 1.8% of injected ^238Pu | 19 ± 13% of injected ^238Pu | 20 ± 11% of injected ^238Pu | 4.5 ± 1.4% of injected ^238Pu | 45 ± 2.5% of injected ^238Pu |  |  |  |  |  |  |  |  |
| CC(=O)N(O)CCCCCNC(=O)CCC(=O)N(O)CCCCCNC(=O)CCC(=O)N(O)CCCCCNC(=O)c1cccc(=O)n1O [DFO-(1,2-HOPO)] | 46.7% of injected ^238Pu | 9.5% of injected ^238Pu |  | 5.1 ± 2.2^d percent of injected ^238Pu | 6.0 ± 0.5^d percent of injected ^238Pu | 2.3 ± 0.5^d percent of injected ^238Pu | 13 ± 2.9^d percent of injected ^238Pu |  |  |  |  |  |  |  |  |
| CC(=O)N(O)CCCCCNC(=O)CCC(=O)N(O)CCCCCNC(=O)CCC(=O)N(O)CCCCCNC(=O)c1ccn(C)c(=O)c1O [DFO-Me-3,2-HOPO] | 26.4% of injected ^238Pu | 21% of injected ^238Pu | 3.0% of injected ^238Pu | 13 ± 3.5% of injected ^238Pu | 17 ± 2.4% of injected ^238Pu | 19 ± 3.0% of injected ^238Pu | 53 ± 3.4% of injected ^238Pu |  |  |  |  |  |  |  |  |
| Cn1ccc(C(=O)NCCN(CCNC(=O)c2ccn(C)c(=O)c2O)CCN(CCNC(=O)c2ccn(C)c(=O)c2O)CCNC(=O)c2ccn(C)c(=O)c2O)c(O)c1=O [H(2,2)-Me-3,2-HOPO, N,N,N',N'-tetrakis[(3-hydroxyl-1-methyl-2-oxo-1,2-dihydropyridin-4-yl)carboxamido-ethyl]-ethylenediamine] |  |  |  |  |  |  |  | 3.8 ± 1.1^d percent of injected ^238Pu | 11 ± 1.7% of injected ^238Pu | 2.8 ± 1.6% of injected ^238Pu | 19 ± 2.9^d percent of injected ^238Pu | 45.3% of injected ^238Pu | 36% of injected ^238Pu | 1.3% of injected ^238Pu | no. of survivors [2, 4]: 5; percent control mean + SD: body weight [2, 4]: 92 ± 6 percent control; percent control mean + SD: plasma urea N [2, 4]: 223 ± 28 percent control; no. of survivors [2, 5]: 5; percent control mean + SD: body weight [2, 5]: 87 ± 9 percent control; percent control mean + SD: plasma urea N [2, 5]: 225 ± 188 percent control; no. of survivors [2, 9]: 3; percent control mean + SD: body weight [2, 9]: 94 ± 6 percent control; percent control mean + SD: plasma urea N [2, 9]: 169 ± 10 percent control |
